Results on 27 compounds are retold here after patent US5554630A, “Benzimidazole compounds” (NeuroSearch A/S, priority 1993, dated 1996).

The target in test [1] is benzodiazepine receptor (GABAA receptor). Description: in vitro inhibition of 3H-flunitrazepam binding (rat cerebral cortex membranes). Further details: species or system rat (male Wistar. The text has this: At present two types of GABA receptors are known, the GABAA and the GABAB receptors. […] Activation of GABA receptors leads to alternations in membrane potential (hyperpolarization). The GABAA receptors are associated with chloride influx through its associated and integrated chloride channel, whereas GABAB receptor activation indirectly alters potassium and calcium channels as well as modifies second messenger production. The GABAA recognition sites can be activated by GABA, muscimol; and isoguvacine for example, but not by GABAB agonists such as for example baclofen. The modulatory GABAA recognition site at the benzodiazepine receptor sites can be selectively radiolabelled with 3H-flunitrazepam. The affinity of various potential ligands for the benzodiazepine receptor sites can thus be evaluated by estimating the ability of test compounds to displace 3H-flunitrazepam.
Tissue preparations are performed at zero to four degrees Celsius. Cerebral cortex from male Wistar rats (150-200 g) is homogenized in 2 times 10 ml Tris-HCl, 30 mM at pH 7.4 The resulting suspension is centrifuged at 40,000 g for 15 minutes. The pellet is washed three times with buffer, centrifuged at two degrees Celsius at 40,000 g for ten minutes. The washed pellet is homogenized in 2 times 10 ml of buffer and is thereafter incubated on a water bath at 37° C. for 30 minutes and is thereafter centrifuged at 40,000 g for 10 minutes. The pellet is then homogenized with buffer and is centrifuged at 0° C. for 10 minutes at 40,000 g. The final pellet is resuspended in 30 ml buffer and the preparation may thereafter be stored at -20° C. In the test situation the membrane preparation is thawed and centrifuged at 2° C. for ten minutes at 48,000 g. The pellet is then washed two times with 2 times 10 ml 50 mM Tris-citrate at pH 7.1 using an Ultra-Turrax homogenizer and centrifuged at 48,000 g for 10 minutes. The hereby obtained pellet is resuspended in 50 mM Tris-citrate at pH 7.1,500 ml buffer per gram of original tissue, and is then used for binding assays. Aliquots of 0.5 ml tissue is added to 0.025 ml of 3H-flunitrazepam, final concentration of 1 nM, and is mixed and incubated for 40 minutes at 2° C. Non-specificbinding is determined using clonazepam, at 100 ng/ml final concentration. After incubation 5 ml of icecold buffer is added to the samples and these are poured directly onto Whatman GF/C glass fibre filters under suction and is immediately washed with 5 ml icecold buffer. The amount of radioactivity on the filters is determined by conventional liquid scintillation counting. Specific binding is total binding minus non specific binding. Test value is calculated as the IC50 which is equivalent to the concentration which inhibits the specific binding by 50 percent.
The method used to determine in vitro inhibition of ^3 H-flunitrazepam binding is presented under the heading of Biology.

Test [2] concerns GABAA receptor-ion channel complex (benzodiazepine receptor, mouse forebrain). Description: in vivo inhibition of 3H-flunitrazepam binding in mouse forebrain. Further details: species or system mouse (female NMRI). The note with it: i.p. 10 min before i.v. 3H-FNM, mice killed 20 min later, 30 min.
The subject of test [3] is GABAA receptor-ion channel complex. The note with it: background statement, in vitro; cited from earlier work.
The mark [4] stands for this setting: first table, 1 nM 3H-flunitrazepam, 40 min at 2° C, read-out: IC50.
Setting [5] is: second table (R6/R11), 3H-flunitrazepam, read-out: in-vitro binding IC50.

Each structure is given as a SMILES string. pIC50: −log10 of the molar value. Like-named read-outs stand apart in the source and are kept apart here. Where only a bound is given, the exact number is not on record here.

Turning to `CN1C(=O)c2ccccc2-n2cnc3cc(C(F)(F)F)cc1c32` [Compound 2f, 4-trifluoromethyl-6,7-dihydro-6-methyl-7-oxo-benzimidazo[3,4-ab][1,4]benzodiazepine], the pIC50 in test [1] (setting [4]) is 8.27.

Regarding `FC(F)(F)c1ccc2c(c1)ncn2-c1cccc(-n2ccnc2)c1` [Compound 3a, 1-(3-(1-Imidazolyl)-phenyl)-5 trifluoromethylbenzimidazole], the “in-vivo binding ED50” value in test [2] is reported as 7.3 mg/kg. For the same compound, the pIC50 in test [1] (setting [5]) is 7.80.

With `CC(C)OC(=O)c1ccc2c(c1)ncn2-c1cccc(-n2ccnc2)c1` [Compound 4a], the “in-vivo binding ED50” value in test [2] was over 10.0 mg/kg. In test [1] (setting [5]), the pIC50 was 7.96.

Turning to `Cc1ccc2c(c1)ncn2-c1cccc(-n2ccnc2)c1` [Compound 5a, 1-[3-(1-imidazolyl)-phenyl]-5-methyl-benzimidazole], the “in-vivo binding ED50” value in test [2] amounted to 0.8 mg/kg. The pIC50 in test [1] (setting [4]) and in test [1] (setting [5]) was 8.92 each time.

As to `CC(C)(C)c1ccc2c(c1)ncn2-c1cccc(-n2ccnc2)c1` [Compound 6a, 1-[3-(1-imidazolyl)-phenyl]-5-t-butyl-benzimidazole], the “in-vivo binding ED50” value in test [2] stood at 2.1 mg/kg. The pIC50 in test [1] (setting [4]) and in test [1] (setting [5]) was 8.62 throughout.

As to `Cc1cn(-c2cccc(-n3cnc4cc(C(C)(C)C)ccc43)c2)cn1` [Compound 8a], the pIC50 in test [1] (setting [5]) was 7.96.

Take `c1ccc(-c2ccc3c(c2)ncn3-c2cccc(-n3ccnc3)c2)cc1` [Compound 9a, 1-[3-(1-imidazolyl)-phenyl]-5-phenyl-benzimidazole]: the “in-vivo binding ED50” value in test [2] amounted to 8.9 mg/kg. The pIC50 in test [1] (setting [4]) is 8.13; in test [1] (setting [5]), 8.14.

As for `CC(C)c1ccc2c(c1)ncn2-c1cccc(-n2ccnc2)c1` [Compound 14a, 1-[3-(1-imidazolyl)-phenyl]-5-i-propyl-benzimidazole], the “in-vivo binding ED50” value in test [2] was 1.2 mg/kg. Also, the negative-log IC50 (pIC50) in test [1] (setting [4]) and in test [1] (setting [5]) was 9.22 in each case.

Turning to `Ic1ccc2c(c1)ncn2-c1cccc(-c2cccnc2)c1` [Compound 18a, 1-[3-(3-pyridyl)-phenyl]-5-iodo-benzimidazole], in test [2], the “in-vivo binding ED50” value is on record as 1.5 mg/kg. For the same compound, the pIC50 in test [1] (setting [4]) and in test [1] (setting [5]) was 8.77 in each case.

As for `CC(C)(C)c1ccc2c(c1)ncn2-c1cccc(-c2cccnc2)c1` [Compound 22a, 1-[3-(3-pyridyl)-phenyl]-5-t-butyl-benzimidazole], in test [2], the “in-vivo binding ED50” value was 16.3 mg/kg. Moreover, in test [1] (setting [5]), the pIC50 is 8.00.

As to `O=[N+]([O-])c1ccc2c(c1)ncn2-c1cccc(-c2cccnc2)c1` [Compound 24a], the “in-vivo binding ED50” value in test [2] is 6.1 mg/kg. Besides, in test [1] (setting [5]), the negative-log IC50 (pIC50) was 7.40.

As for `Cc1noc(-c2cccc(-n3cnc4cc(C(C)(C)C)ccc43)c2)n1` [Compound 33a], the “in-vivo binding ED50” value in test [2] came out at 8.2 mg/kg. For the same compound, the pIC50 in test [1] (setting [5]) is 7.89.

As to `CC(C)c1ccc2c(c1)ncn2-c1cccc(-n2cnc3ccccc32)c1` [Compound 34a, 1-[3-(1-benzimidazolyl)-phenyl]-5-i-propyl-benzimidazole], in test [2], the “in-vivo binding ED50” value stood at 2.8 mg/kg. Further, the pIC50 in test [1] (setting [4]) and in test [1] (setting [5]) was 8.37 throughout.

As to `Cc1nccn1-c1cccc(-n2cnc3cc(-c4ccccc4)ccc32)c1` [Compound 38a, 1-[3-(1-(2-methylimidazolyl))-phenyl]-5-phenyl-benzimidazole], the “in-vivo binding ED50” value in test [2] was 2.6 mg/kg. The negative logarithm of the IC50 (pIC50) in test [1] (setting [4]) and in test [1] (setting [5]) was 8.05 in each case.

Turning to `FC(F)(F)c1ccc2c(c1)ncn2-c1cccc(-n2cnc3ccccc32)c1` [Compound 39a, 1-[3-(1-benzimidazolyl)-phenyl]-5-trifluoromethyl-benzimidazole], in test [2], the “in-vivo binding ED50” value is listed as 7.5 mg/kg. The pIC50 in test [1] (setting [4]) and in test [1] (setting [5]) was 8.04 in each case.

Regarding `O=CNc1ccc2c(c1)ncn2-c1cccc(-n2ccnc2)c1` [Compound 41a], the “in-vivo binding ED50” value in test [2] is over 10.0 mg/kg. In test [1] (setting [5]), the pIC50 was 7.89.

As for `c1cncc(-c2cccc(-n3cnc4cc(-c5ccoc5)ccc43)c2)c1` [Compound 45a, 1-[3-(3-pyridyl)-phenyl]-5-(3-furanyl)-benzimidazole], the “in-vivo binding ED50” value in test [2] was 1.9 mg/kg. Also, the negative-log IC50 (pIC50) was 8.92 in test [1] (setting [4]) and 8.85 in test [1] (setting [5]).

For the compound `O=Cc1ccc2c(c1)ncn2-c1cccc(-c2cccnc2)c1` [Compound 50a, 1-(3-(3-pyridyl)phenyl)-5-formylbenzimidazole], the “in-vivo binding ED50” value in test [2] is on record as over 3 mg/kg. Also, the pIC50 in test [1] (setting [5]) is 7.43.

Consider `ON=Cc1ccc2c(c1)ncn2-c1cccc(-c2cccnc2)c1` [Compound 52a, 1-(3-(3-pyridyl)phenyl)-5-aldoximobenzimidazole], for which the “in-vivo binding ED50” value in test [2] stood at 1.6 mg/kg. Also, in test [1] (setting [5]), the pIC50 was 8.48.

As for `c1cncc(-c2cccc(-n3cnc4cc(-c5nc(C6CC6)no5)ccc43)c2)c1` [Compound 53a], in test [2], the “in-vivo binding ED50” value amounted to 24.0 mg/kg. For the same compound, the negative logarithm of the IC50 (pIC50) in test [1] (setting [5]) was 7.55.

Turning to `NC(=O)NN=Cc1ccc2c(c1)ncn2-c1cccc(-c2cccnc2)c1` [Compound 55a, 1-(3-(3-pyridyl)phenyl)-5-semicarbazonobenzimidazole], the “in-vivo binding ED50” value in test [2] is reported as over 3.0 mg/kg. The negative logarithm of the IC50 (pIC50) in test [1] (setting [5]) is 8.12.

On to `c1cncc(-c2cccc(-n3cnc4cc(-n5ccnc5)ccc43)c2)c1` [Compound 56a], for which the “in-vivo binding ED50” value in test [2] is listed as 6.8 mg/kg. Also, the pIC50 in test [1] (setting [5]) was 7.66.

In the case of `c1cncc(-c2cccc(-n3cnc4cc(-c5ccco5)ccc43)c2)c1` [Compound 57a, 1-[3-(3-pyridyl)-phenyl]-5-(2-furanyl)-benzimidazole], in test [2], the “in-vivo binding ED50” value amounted to 4.8 mg/kg. In test [1] (setting [5]), the pIC50 is 8.37.

Take `COCc1ccc2c(c1)ncn2-c1cccc(-c2cccnc2)c1` [Compound 58a]: the “in-vivo binding ED50” value in test [2] came to 1.7 mg/kg. Moreover, the pIC50 in test [1] (setting [5]) is 7.82.

Regarding `CON=Cc1ccc2c(c1)ncn2-c1cccc(-c2cccnc2)c1` [Compound 59a, 1-[3-(3-pyridyl)-phenyl]-5-methylaldoximo-benzimidazole], in test [2], the “in-vivo binding ED50” value was 1.04 mg/kg. For the same compound, in test [1] (setting [5]), the negative logarithm of the IC50 (pIC50) is 8.70.

For the compound `CC(C)c1ccc2c(c1)ncn2-c1cccc(-c2cccnc2)c1` [Compound 60a, 1-[3-(3-pyridyl)-phenyl]-5-i-propyl-benzimidazole], the “in-vivo binding ED50” value in test [2] turned out to be 2.2 mg/kg. Besides, the pIC50 in test [1] (setting [5]) is 8.38.

On to `CN1C(=O)CN=C(c2ccccc2F)c2cc([N+](=O)[O-])ccc21` [^3 H-FNM], for which the “binding to the GABAA receptor-ion channel complex (in words)” value in test [3] is “selectively and with high-affinity”.
